Test results published in article PMC11287286 (Proceedings of the National Academy of Sciences of the …, 2024).

Assays:
CB1 D176^2.63N = CB1 D176^2.63N (Homo sapiens, UniProt P21554, D176N)
CB1^ECL2/CB2^other = assay: GloSensor cAMP assay, chimeric construct; type: cell-based, human; conditions: vs wild-type CB2
CB2^ECL2/CB1^other = assay: GloSensor cAMP assay, chimeric construct; type: cell-based, human; conditions: vs wild-type CB1
CB2-M293^7.47T&S47^1.46T = CB2-M293^7.47T&S47^1.46T (Homo sapiens, UniProt P34972, M293T/S47T); assay: GloSensor cAMP assay, CB2 double mutant; type: cell-based
Chain of CB2-M293^7.47T&S47^1.46T (P34972 whole entry S47T/M293T): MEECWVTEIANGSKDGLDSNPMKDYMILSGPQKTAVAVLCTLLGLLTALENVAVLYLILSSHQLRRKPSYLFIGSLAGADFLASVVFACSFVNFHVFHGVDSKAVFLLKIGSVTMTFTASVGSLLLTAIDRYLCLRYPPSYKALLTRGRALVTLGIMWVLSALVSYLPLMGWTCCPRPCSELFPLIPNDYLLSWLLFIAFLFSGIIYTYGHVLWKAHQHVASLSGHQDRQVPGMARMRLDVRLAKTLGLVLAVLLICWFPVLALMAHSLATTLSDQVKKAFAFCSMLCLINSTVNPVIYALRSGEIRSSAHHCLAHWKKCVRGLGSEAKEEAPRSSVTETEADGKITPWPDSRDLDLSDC

Chain of CB1 D176^2.63N (P21554 whole entry D176N): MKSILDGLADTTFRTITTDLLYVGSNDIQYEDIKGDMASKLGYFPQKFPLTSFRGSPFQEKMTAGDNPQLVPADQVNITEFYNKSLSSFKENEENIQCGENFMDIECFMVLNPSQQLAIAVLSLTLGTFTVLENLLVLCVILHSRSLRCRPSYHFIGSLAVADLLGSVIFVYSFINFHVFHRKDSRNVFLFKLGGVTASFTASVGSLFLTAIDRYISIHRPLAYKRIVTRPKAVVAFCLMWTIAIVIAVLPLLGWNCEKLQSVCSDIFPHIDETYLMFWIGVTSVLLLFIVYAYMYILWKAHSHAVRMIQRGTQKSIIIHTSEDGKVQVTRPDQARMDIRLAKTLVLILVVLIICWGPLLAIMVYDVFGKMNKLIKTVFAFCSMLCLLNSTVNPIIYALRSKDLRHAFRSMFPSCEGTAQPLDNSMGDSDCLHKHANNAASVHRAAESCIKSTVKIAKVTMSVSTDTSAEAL

## CCCCCCC(C)(C)c1ccc([C@@H]2C[C@H](O)CC[C@H]2CCCO)c(O)c1 [CP55,940]
CB1 D176^2.63N
  activity vs wild-type CB1: significantly reduces the activity
CB1^ECL2/CB2^other
  effect of ECL2 replacement on EC50: no effect on the EC50
CB2^ECL2/CB1^other
  activation of CB1 receptor containing the CB2 ECL2 loop: same potency as wild-type CB1
CB2-M293^7.47T&S47^1.46T
  activity vs wild-type CB2: remained essentially unchanged
